These are literature values, as cited in patent US8309103B2, “Association of fluconazole-tinidazole for the treatment of vaginal infections, its composition, preparation process and usage” (Alparis, S.A. DE C.V., priority 2004, dated 2012).

Read-outs that look alike come from different tables or passages of the source.

The conditions of series [1]: in vivo, po.
A further series concerns vaginal candidiasis. The following applies: one dose of 150 mg; 1,017 patients with vaginal candidiasis.
A further series has as its system Trichomonas vaginalis. The following applies: 2 grams in an only dose, sexual partner also involved.
Series [2] deals with Bacterial Vaginosis (Gardnerella vaginallis).

In the case of `OC(Cn1cncn1)(Cn1cncn1)c1ccc(F)cc1F` [fluconazole], the “Relationship between plasma and the vaginal tissue” value in series [1] is listed as 0.94-1.1. Besides, the “Patients in whom well received and effective” value in the series with vaginal candidiasis is recorded as 91%.
As to `Cc1ncc([N+](=O)[O-])n1CCO` [metronidazole], the Efficacy entry with Trichomonas vaginalis was “up to 85%”.
`Cc1ncc([N+](=O)[O-])n1CC(C)O` (centres unmarked) [secnidazole]: the “Share of the dose taken excreted (essentially urinary)” value (in 120 hours) is listed as 50%. Also, under “oral, one 2 g dose”, the Average plasmatic life entry was “about 25 hours” and the “Time at which the highest seric rates are obtained” value is reported as “third”.
`CCS(=O)(=O)CCn1c([N+](=O)[O-])cnc1C` [tinidazole]: the Curative rate is recorded as 92% in series [2] (an only dose of 2 g tinidazole) and 51% in series [2] (same amount (2 g) in a two-day scheme, other researchers).
